What all share (assay): Cell proliferation assay (CellTiter-Glo)
Common to all, as to format: cell-based

One experiment has as its system KG-1 cell (OP2-FGFR1). The note with it: Homo sapiens, anti-cell proliferation, 72 hours. Summed up: (§1)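 Cells seeded 24 h, then exposed to compounds for 72 h at 37° C., 5% CO2. Proliferation read by CellTiter-Glo luminescent ATP detection; IC50 from dose-response fits.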
The test system of another experiment is KM12 (TPM3-TRKA). The note with it: Homo sapiens, anti-cell proliferation, 72 hours. Summed up:
as §1

Another experiment deals with T1, BaF3 EML4-ALK (Homo sapiens, UniProt Q9UM73).
T1 construct: The EML4-ALK gene (variant 1) was synthesized at GenScript and cloned into pCDH-CMV-MCS-EF1-Puro plasmid (System Biosciences, Inc); fused on or other part: EML4 N-terminal part (variant 1: exons 1-13, with the coiled-coil that oligomerises the fusion) fused to the intracellular part of ALK, which contains the kinase domain; Q9HC35 (Echinoderm microtubule-associated protein-like 4)
T1 sequence (Q9UM73 whole entry, stated change not applied, the tested form may be a part): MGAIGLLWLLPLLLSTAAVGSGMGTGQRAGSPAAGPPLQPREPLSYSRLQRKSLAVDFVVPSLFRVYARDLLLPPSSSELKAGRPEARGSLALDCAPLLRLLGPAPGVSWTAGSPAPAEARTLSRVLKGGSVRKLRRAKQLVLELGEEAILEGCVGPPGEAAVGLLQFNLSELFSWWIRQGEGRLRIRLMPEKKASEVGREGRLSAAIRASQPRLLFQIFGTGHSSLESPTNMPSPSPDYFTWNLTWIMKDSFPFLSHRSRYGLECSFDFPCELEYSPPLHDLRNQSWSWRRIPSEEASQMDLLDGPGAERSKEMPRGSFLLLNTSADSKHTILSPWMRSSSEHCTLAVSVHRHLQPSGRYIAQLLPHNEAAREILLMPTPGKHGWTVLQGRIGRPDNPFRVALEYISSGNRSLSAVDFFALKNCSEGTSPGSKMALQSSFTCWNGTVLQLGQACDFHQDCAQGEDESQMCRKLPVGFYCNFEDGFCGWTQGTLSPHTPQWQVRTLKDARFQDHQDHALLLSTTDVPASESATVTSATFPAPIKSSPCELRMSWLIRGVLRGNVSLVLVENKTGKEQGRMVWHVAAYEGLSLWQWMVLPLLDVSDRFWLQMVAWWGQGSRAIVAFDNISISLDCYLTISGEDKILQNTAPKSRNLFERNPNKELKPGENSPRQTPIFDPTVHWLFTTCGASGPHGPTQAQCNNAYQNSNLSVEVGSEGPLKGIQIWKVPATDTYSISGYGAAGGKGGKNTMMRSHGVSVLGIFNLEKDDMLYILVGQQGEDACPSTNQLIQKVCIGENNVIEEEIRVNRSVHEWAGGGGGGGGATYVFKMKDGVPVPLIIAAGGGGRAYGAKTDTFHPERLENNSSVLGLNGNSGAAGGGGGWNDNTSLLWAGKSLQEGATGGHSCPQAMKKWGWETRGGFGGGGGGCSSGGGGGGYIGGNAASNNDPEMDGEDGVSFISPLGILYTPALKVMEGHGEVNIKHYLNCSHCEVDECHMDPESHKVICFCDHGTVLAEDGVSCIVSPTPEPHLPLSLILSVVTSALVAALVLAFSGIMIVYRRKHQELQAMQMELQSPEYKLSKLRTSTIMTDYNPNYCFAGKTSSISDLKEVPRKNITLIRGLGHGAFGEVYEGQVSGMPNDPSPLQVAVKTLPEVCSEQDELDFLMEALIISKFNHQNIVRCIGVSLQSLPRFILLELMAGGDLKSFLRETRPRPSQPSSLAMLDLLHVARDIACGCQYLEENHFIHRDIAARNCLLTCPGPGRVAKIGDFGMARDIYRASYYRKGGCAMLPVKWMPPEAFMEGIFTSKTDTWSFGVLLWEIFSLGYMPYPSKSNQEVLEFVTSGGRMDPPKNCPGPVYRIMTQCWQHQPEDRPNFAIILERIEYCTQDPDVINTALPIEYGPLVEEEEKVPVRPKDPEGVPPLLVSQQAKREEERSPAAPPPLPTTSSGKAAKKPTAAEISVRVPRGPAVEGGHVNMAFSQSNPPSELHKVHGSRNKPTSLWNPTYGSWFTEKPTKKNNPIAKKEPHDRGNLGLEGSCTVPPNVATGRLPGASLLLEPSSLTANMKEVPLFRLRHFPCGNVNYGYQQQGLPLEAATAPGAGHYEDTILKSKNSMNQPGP
The note with it: anti-cell proliferation, 72 hours. A digest of the protocol: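 Ba/F3 cells were lentivirally transduced with EML4-ALK variant 1 and selected for puromycin resistance and IL-3-independent growth. Proliferation was measured by CellTiter-Glo ATP luminescence to give IC50.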

Among the data in US20210087206A1, “MACROCYCLIC KINASE INHIBITORS AND THEIR USE” (TURNING POINT THERAPEUTICS, INC., priority 2017, published 2021) are IC50 values, retold here.

SMILES strings stand for the structures.

Take `C[C@@H]1COc2ncc(F)cc2CN2CC(F)(F)COc3cn4ncc(c4nc32)C(=O)N1` [Compound 74, (14R)-4,4,9-trifluoro-14-methyl-4,5,14,15-tetrahydro-3H,7H-19,1-(metheno)[1,4]oxazepino[3,4-i]-pyrazolo[4,3-f]pyrido[3,2-l] [1,4,8,10]oxatriazacyclotridecin-16(13H)-one]: the values for the IC50 in the experiment on KG-1 cell (OP2-FGFR1), in the experiment on KM12 (TPM3-TRKA) and on BaF3 EML4-ALK were 3000 nM, 84 nM and > 10000 nM, respectively.

With `CC[C@@H]1COc2cn3ncc4c3nc2N1Cc1cc(F)cnc1OCC[C@H](C)NC4=O` [Compound 75, (6S,16R)-16-ethyl-12-fluoro-6-methyl-5,6,7,8,16,17-hexahydro-4H,14H-1,19-(metheno)[1,4]-oxazino[4,3-e]pyrazolo[3,4-h]-pyrido[2,3-b][1,5,7,11]oxatriaza-cyclotetradecin-4-one], the IC50 (in general, the concentration at which inhibition is half-maximal) in the experiment with KG-1 cell (OP2-FGFR1) was 9.7 nM; in the experiment with KM12 (TPM3-TRKA) it was < 0.2 nM; against BaF3 EML4-ALK, 19.8 nM.

On to `CC[C@@H]1COc2cn3ncc4c3nc2N1Cc1cc(F)cnc1OCC(C)(C)CNC4=O` [Compound 76, (16R)-16-ethyl-12-fluoro-7,7-dimethyl-5,6,7,8,16,17-hexahydro-4H,14H-1,19-(metheno)[1,4]-oxazino[4,3-e]pyrazolo[3,4-h]-pyrido[2,3-b][1,5,7,11]oxatriaza-cyclotetradecin-4-one], for which the half-maximal inhibitory concentration (IC50) in the experiment on KG-1 cell (OP2-FGFR1) was 0.8 nM; in the experiment on KM12 (TPM3-TRKA) it was < 0.2 nM; at BaF3 EML4-ALK, 35.3 nM.

Take `C[C@H]1CNC(=O)c2cnn3cc4c(nc23)N(Cc2cc(F)cnc2O1)CC(F)(F)CO4` [Compound 77, (13S)-4,4,9-trifluoro-13-methyl-4,5,14,15-tetrahydro-3H,7H-19,1-(metheno)[1,4]oxazepino[3,4-i]-pyrazolo[4,3-f]pyrido[3,2-l] [1,4,8,10]oxatriazacyclotridecin-16(13H)-one]: the IC50 is 10000 nM in the experiment with KG-1 cell (OP2-FGFR1), 446 nM in the experiment with KM12 (TPM3-TRKA) and > 10000 nM on BaF3 EML4-ALK.

As to `C[C@@H]1COc2cn3ncc4c3nc2N1Cc1cc(F)cnc1OC[C@@H](F)CNC4=O` [Compound 78, (7S,16R)-7,12-difluoro-16-methyl-5,6,7,8,16,17-hexahydro-4H,14H,- 1,19-(metheno)[1,4]oxazino[4,3-e]pyrazolo[3,4-h]pyrido[2,3-b] [1,5,7,11]oxatriazacyclotetradecin-4-one], the results for the IC50 in the experiment on KG-1 cell (OP2-FGFR1), in the experiment with KM12 (TPM3-TRKA) and against BaF3 EML4-ALK were 10.2 nM, < 0.2 nM and 33 nM, respectively.

For the molecule `C[C@@H]1COc2cn3ncc4c3nc2N1Cc1cc(F)cnc1OCC(F)(F)CNC4=O` [Compound 79, (16R)-7,7,12-trifluoro-16-methyl-5,6,7,8,16,17-hexahydro-4H,14H-1,19-(metheno)[1,4]oxazino[4,3-e]pyrazolo[3,4-h]pyrido[2,3-b][1,5,7,11]oxatriazacyclotetra-decin-4-one], the half-maximal inhibitory concentration (IC50) in the experiment on KG-1 cell (OP2-FGFR1) is 9.9 nM; with KM12 (TPM3-TRKA), < 0.2 nM; on BaF3 EML4-ALK, 31.7 nM.

For the molecule `C[C@@H]1COc2cn3ncc4c3nc2N1Cc1cc(F)cnc1OC[C@H](F)CNC4=O` [Compound 80, (7R,16R)-7,12-difluoro-16-methyl-5,6,7,8,16,17-hexahydro-4H,14H-1,19-(metheno)[1,4]-oxazino[4,3-e]pyrazolo[3,4-h]pyrido[2,3-b][1,5,7,11]oxa-triazacyclotetradecin-4-one], the figures for the IC50 with KG-1 cell (OP2-FGFR1), in the experiment with KM12 (TPM3-TRKA) and against BaF3 EML4-ALK were 44.4 nM, < 0.2 nM and 134 nM, respectively.

With `C[C@@H]1COc2cn3ncc4c3nc2N1Cc1cc(F)cnc1OC[C@H](CO)NC4=O` [Compound 82, (4R,13S)-8-fluoro-13-(hydroxy-methyl)-4-methyl-3,4,13,14-tetrahydro-6H-18,1-(metheno)-[1,4]oxazino[3,4-i]pyrazolo[4,3-f]pyrido[3,2-l][1,4,8,10]oxatriaza-cyclotridecin-15(12H)-one], the concentration for half-maximal inhibition (IC50) in the experiment with KG-1 cell (OP2-FGFR1) was 37.3 nM; in the experiment on KM12 (TPM3-TRKA), < 0.2 nM; at BaF3 EML4-ALK it was 657 nM.
